The values below come from patent publication US12553903B2, “Ivaltinostat combination therapy for treating pancreatic cancer” (CG Pharmaceuticals, Inc, priority 2023, dated 2026).

For data set [1], the system named is metastatic pancreatic cancer. The note with it: first line; cited from earlier work.
Data set [2] relates to PDAC after gemcitabine-based therapy. To be noted: with bortezomib, seven patients enrolled; cited from earlier work.
Data set [3] concerns patients with advanced PDAC. The experiment in a line: Phase II safety and adverse events (NCI-CTCAE v4.0). The format is in vivo. To be noted: for patients with dose reduced due to occurrence of AEs: three of 24 patients. Here is the method: (§1) Tumor evaluation was performed at baseline, at the end of every two cycles, and/or at the end of the trial. For patients with measurable/non-measurable lesions, the Response Evaluation Criteria in Solid Tumors version 1.1 was used to evaluate target/non-target lesions. Serial measurements of carbohydrate antigen 19-9 (CA19-9) levels were performed at baseline and at the beginning of each treatment cycle. Patients were followed up for survival until death or study closure. Safety evaluation included vital signs, adverse events (AEs), adverse drug reactions, serious AEs, ECG, and clinic al laboratory tests, which were performed on days 1, 8 and 15 each cycle. AEs were graded according to the Common Terminology Criteria for Adverse Events, version 4.0, by the National Cancer Institute.
Full analysis set (FAS), per protocol (PP), and safety set analysis were defined according to the study protocol. FAS was defined as patients who had been evaluated for tumor response at least once after baseline. The PP analysis set included patients who received at least 70% and more of the intended study drug throughout the treatment period and without any significant violation of the protocol.

Data set [4] deals with advanced PDAC. The note with it: combined with gemcitabine; cited from earlier work.
Data set [5] has as its system advanced PDAC. To be noted: with gemcitabine; cited from earlier work.
Data set [6] deals with advanced pancreatic ductal adenocarcinoma (PDAC). Briefly: Phase II efficacy (ORR, DCR, OS, PFS). It is filed as in vivo, human. How it is done: Both ivaltinostat and gemcitabine were administered via the same protocol as that in the phase I study, until development of unacceptable toxicity or disease progression. The entire treatment period was six cycles and could be extended to 12 cycles if the patients wanted to continue the regimen and the principal investigator agreed. Tumor assessment was evaluated at the end of every two cycles. Dose reduction or delay could be applied for intolerant patients according to the study protocol.
The primary endpoint was the ORR, which was defined as the rate (%) of patients who had best tumor assessment with complete response (CR) or partial response (PR) during the treatment period. Secondary endpoints included disease control rate (DCR), OS, and progression-free survival (PFS). DCR was defined as the rate (%) of patients who had best tumor assessment with CR, PR, or stable disease (SD) during the treatment period. OS was defined as the time from the date of the first enrollment to the date of death from any cause. Patients who were still alive or withdrew at the date of cut off were censored. PFS was defined as the time from the date of the first enrollment to the date of tumor progression or to the date of death from any cause. Patients were followed up for survival until death, withdrawal, or study closure.
as §1
Full analysis set (FAS), per protocol (PP), and safety set analysis were defined according to the study protocol. FAS was defined as patients who had been evaluated for tumor response at least once after baseline. The PP analysis set included patients who received at least 70% and more of the intended study drug throughout the treatment period and without any significant violation of the protocol. The safety cohort included all patients who had received the study drug at least once.
Statistical Analysis: To identify MTD and DLT, the 3+3 dose escalation design was utilized and based on the method of determining MTD described above. In total, 10 patients were enrolled in the phase I study. The estimated sample size for the phase II study after the determination of MTD was calculated based on Simon's 2 stage design25 with a reference of published data of 8.6% ORR from a phase III randomized controlled trial of gemcitabine and erlotinib combination therapy. Assuming a difference in response probability of study drug=20%, α=0.05, and statistical power=90%, the estimated minimally required sample size for phase II study based on binomial distribution probability may be 9 for initial stage and increase to a total of 24 patients if more than one patient had responded to the study drug during the initial stage. The safety analysis included all patients who had received a single dose of the study drug. The main efficacy analysis was based on the FAS population, defined as a group of patients who had received at least single dose of study drug and had at least one tumor response evaluation after the baseline assessment.

Another data set can be described thus: clinical. To be noted: human, in vivo, iv.
For data set [7], the system named is patients with unresectable pancreatic ductal adenocarcinoma (PDAC). It is filed as in vivo. The source says: The present disclosure discloses a phase I/II study that evaluated the safety and efficacy of the histone deacetylase (HDAC) inhibitor, ivaltinostat, in combination with gemcitabine and erlotinib for advanced pancreatic ductal adenocarcinoma (PDAC). Patients diagnosed with unresectable, histologically confirmed PDAC who had not undergone previous therapy were eligible. […] In phase II, patients received a six-cycle treatment with the MTD of ivaltinostat determined in phase I. The primary endpoint was the objective response rate (ORR). Secondary endpoints included overall survival (OS), disease control rate (DCR), and progression-free survival (PFS). The MTD of ivaltinostat for the phase II trial was determined to be 250 mg/m^2. In phase II, 24 patients were enrolled. The median OS and PFS were 8.6 (95% confidence interval [CI]: 5.3-11.2) and 5.3 months (95% CI: 3.7-5.8). Of the 16 patients evaluated for response, ORR and DCR were 25.0% and 93.8% with a median OS/PFS of 10.8 (95% CI: 8.3-16.7)/5.8 (95% CI: 4.6-6.7) months.
One study disclosed herein was a single-arm phase I/II clinical study. The study evaluated the efficacy and safety of ivaltinostat in combination with gemcitabine and erlotinib for advanced pancreatic cancer. […] The DLT was assessed according to the National Cancer Institute Common Toxicity Criteria version 4.0. […]

Data set [8] has as its system germline BRCA-mutated metastatic pancreatic cancer. To be noted: cited from earlier work.
The next data set relates to pancreatic cancer. The note with it: 1250 mg/m^2 twice daily for 2 weeks followed by a 1-week rest, first line; cited from earlier work.
Where [9] appears, read: FAS analysis (n=16), with gemcitabine + erlotinib.
[10] abbreviates: Grade 3, treatment-related, phase II (n = 24).
Setting [11] is: Grade 4, treatment-related, phase II (n = 24).
Setting [12] is: Total grade 3 and 4, treatment-related, phase II (n = 24).

Description for clinical: The MTD was defined as the dose at which one or zero patients developed a DLT among six-patient cohort. Based on the 3+3 dose escalation design, each cohort consists of three or six subjects. If one in three subjects had experienced DLT in a specific dose, the dose was administered to an additional three subjects and a total of six patients were checked for the occurrence of DLT. If two or more subjects in any cohort had experienced a DLT, the previous dose was considered MTD, and the dose escalation ended. […] Gemcitabine and erlotinib were administered as fixed doses; gemcitabine (1000 mg/m^2 intravenously), and erlotinib (100 mg/day orally), whereas ivaltinostat was administered according to the dose level for each cohort. Each cycle consisted of 28 days. Both ivaltinostat and gemcitabine were administered on days 1, 8, and 15 and erlotinib was administrate d daily for each 28-day cycle.

In the case of FOLFIRINOX, in data set [1], the “median progression-free survival (PFS)” value is given as 6.4 months and the “overall survival (OS)” value was 11.1 months.

For `Cc1[nH]c2ccccc2c1CCNCc1ccc(/C=C/C(=O)NO)cc1` [panovinostat], the study outcome in [2] was “suspended due to lack of response and toxicity”.

For the compound `Nc1ccn([C@@H]2O[C@H](CO)[C@@H](O)C2(F)F)c(=O)n1` [gemcitabine, reference compound], in [3] (phase II), the “patients with dose reduced due to occurrence of AEs” value was 12.5%.

For the compound `C#Cc1cccc(Nc2ncnc3cc(OCCOC)c(OCCOC)cc23)c1` [erlotinib, reference compound], the “patients with dose reduced” value in data set [3] (phase II, 24 patients) was “no patient received a reduced dose”.

On to `CC(=O)Nc1ccc(C(=O)Nc2ccccc2N)cc1` [tacedinaline], for which the “clinical benefit vs gemcitabine alone” value in the data set with advanced PDAC [4] is listed as “no advantage over gemcitabine alone”.

With `Nc1ccccc1NC(=O)c1ccc(CNc2nccc(-c3cccnc3)n2)cc1` [mocetinostat], the “clinical activity and toxicity” value in the data set with advanced PDAC [5] was “showed only limited clinical activity”.

For orientation: AUC(0-t) means exposure summed from dosing to a finite time, without extrapolation to infinity. The term Cmax denotes the highest concentration seen after dosing. As usually defined, the half-life is the time needed for the level to fall by half in the phase considered. A higher half-life goes with slow loss. Take `CN(C)CCCNC(=O)/C(=C/CCCCC(=O)NO)COc1cccc2ccccc12.O=P(O)(O)O` [ivaltinostat, (E)-N1-(3-(dimethylamino)propyl)-N8-hydroxy-2-((naphthalen-1-yloxy)methyl)oct-2-enediamide phosphate]: in data set [6] (FAS analysis (n=16)), the “PRs, % of patients” value stood at 25%; the “PRs, number of patients” value was 4; the “SDs, % of patients” value is on record as 68.8%; the “SDs, number of patients” value came out at 11. Also, in data set [6] (FAS analysis (n=16)), the “median OS” value was found to be 10.8 months and the “median PFS” value is recorded as 5.8 months. In data set [6] (setting [9]), the DCR stood at 93.8% and the ORR is on record as 25.0%. For the same compound, in data set [6] (PP analysis (n=10)), the DCR was 100%; the ORR is on record as 30%; the “PRs, % of patients” value is 30%; the “PRs, number of patients” value is 3. In data set [6] (PP analysis (n=10)), the “SDs, % of patients” value is reported as 70%; the “SDs, number of patients” value is listed as 7; the “median OS” value was 11.7 months; the “median PFS” value was found to be 5.9 months. In addition, the “median OS” value in [6] (all patients (n=23), ivaltinostat 250 mg/m^2 + gemcitabine 1000 mg/m^2 + erlotinib 100 mg/day) worked out at 8.6 months. Also, the “median PFS” value in [6] (all patients (n=23), ivaltinostat 250 mg/m^2 + gemcitabine + erlotinib) worked out at 5.3 months. In data set [3] (setting [10]), the “Anemia, % of patients” value is given as “(16.7) %”; the “Anemia, number of patients” value is recorded as 4; the “Anorexia, % of patients” value was “(8.3) %”; the “Anorexia, number of patients” value is 2. Further, in data set [3] (setting [10]), the “Fatigue, % of patients” value is reported as “(8.3) %”; the “Fatigue, number of patients” value is recorded as 2; the “Febrile neutropenia, % of patients” value is given as “(8.3) %”; the “Febrile neutropenia, number of patients” value is recorded as 2. Besides, in data set [3] (setting [10]), the “Neutropenia, % of patients” value is listed as “(12.5) %”; the “Pneumonia, number of patients” value is 0; the “Thrombocytopenia, % of patients” value was “(16.7) %”; the “Thrombocytopenia, number of patients” value is on record as 4. Also, in [3] (Grade 3, treatment-related, phase II (n = 24), with gemcitabine + erlotinib), the “Neutropenia, number of patients” value turned out to be 3. Besides, in data set [3] (setting [11]), the “Anemia, number of patients” value was 0; the “Anorexia, number of patients” value was found to be 0; the “Fatigue, number of patients” value worked out at 0; the “Febrile neutropenia, number of patients” value is listed as 0. In data set [3] (setting [11]), the “Neutropenia, % of patients” value was “(20.8) %”; the “Neutropenia, number of patients” value was 5; the “Pneumonia, % of patients” value is recorded as “(4.2) %”; the “Pneumonia, number of patients” value amounted to 1. In addition, in data set [3] (setting [11]), the “Thrombocytopenia, % of patients” value is listed as “(12.5) %” and the “Thrombocytopenia, number of patients” value is on record as 3. Further, in [3] (setting [12]), the “Anorexia, % of patients” value is “(8.3) %”; the “Anorexia, number of patients” value was 2; the “Fatigue, % of patients” value is listed as “(8.3) %”; the “Fatigue, number of patients” value was 2. In data set [3] (setting [12]), the “Febrile neutropenia, % of patients” value is recorded as “(8.3) %”; the “Febrile neutropenia, number of patients” value came out at 2; the “Pneumonia, % of patients” value is listed as “(4.2) %”; the “Pneumonia, number of patients” value is 1. For the same compound, in [3] (phase II, 24 subjects), the ADR decreased appetite was 11 events, the “ADR decreased platelet count” value turned out to be 15 events, the ADR nausea is given as 10 events and the ADR rash amounted to 11 events. For the same compound, in data set [3] (phase II, 24 subjects), the ADR vomiting was 10 events, the “ADRs with grade 3 or 4 severity” value is reported as 26, the AEs reported is on record as 218 and the “grade 5 (death) events” value is reported as “no grade 5 (death) events”. Also, the “adverse drug reactions (ADRs)” value in data set [3] (phase II, all 24 subjects) amounted to 114. Moreover, the “patients with dose reduced due to occurrence of AEs” value in data set [3] (phase II) is given as 12.5%. Further, in “clinical” (187.5 mg/m2), the AUC(0-t) amounted to 28300 ng·h/mL, the peak concentration (Cmax) is 9550 ng/mL and the half-life was 7.3 h. Moreover, in “clinical” (250 mg/m2), the AUC(0-t) stood at 35100 ng·h/mL, the Cmax is 8060 ng/mL and the half-life was 5.7 h. In the data set “clinical” (312.5 mg/m2), this compound had an AUC(0-t) of 65400 ng·h/mL, a Cmax of 12800 ng/mL and a half-life of 6.6 h. In data set [7] (human, in vivo, 28 day), the “dose-limiting toxicity (DLT)” value is “One DLT, a febrile neutropenia of grade 3”. Besides, the “maximum tolerable dose (MTD) / recommended dose for phase II” value in data set [7] (iv days 1, 8, 15 with gemcitabine 1000 mg/m2 iv and erlotinib 100 mg/day orally, 28-day cycle) turned out to be 250 mg/m^2.

With `O=C(c1cc(Cc2n[nH]c(=O)c3ccccc23)ccc1F)N1CCN(C(=O)C2CC2)CC1` [olaparib], the “median PFS” value in [8] (maintenance after ≥16 weeks of platinum-based therapy, gBRCA mutations, placebo 3.8) was 7.4 months. Further, in [8] (p=0.004), the “HR for PFS vs. placebo” value is given as 0.53.

As for `CCCCCOC(=O)Nc1nc(=O)n([C@@H]2O[C@H](C)[C@@H](O)[C@H]2O)cc1F` [Capecitabine, capecitabine], the efficacy and tolerability entry with pancreatic cancer was “effective and tolerable”.
